# From US12606528B2, “Methods and materials for inhibiting NF-kB activity” (University of Pittsburgh - Of the Commonwealth System of …, priority 2019, dated 2026)
# Where two headings read alike, the source gives them in different places.
# How the values were obtained:
# NF-κB = NF-κB assay: THP1-NF-κB-LUC cells, LPS-stimulated secreted luciferase; assay type: cell-based; details: THP1-NF-κB-LUC cells, read-out: IC50 (NF-κB assay)
# Method in brief: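 THP1-NF-κB-LUC cells (25k/well) were pretreated with compounds for 2 h, then stimulated with LPS (10 ng/mL) for 18 h. Secreted luciferase was measured and normalized to vehicle, and IC50 was fitted from the concentration series.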
# TNF release = assay: TNF assay: TNF release from LPS-stimulated human PBMCs (TNF ELISA); assay type: cell-based; details: PBMC, read-out: IC50 (TNF assay)
# Method in brief: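 Human PBMCs at 10k/well pretreated with compound dilutions 2 h, then stimulated with LPS (10 ng/mL) for 18 h. TNF in supernatants quantified by ELISA; IC50 for inhibition of TNF release fitted from concentration–response.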
# [1] = compounds 2 hours before LPS (10 ng/mL) for 18 hours, secreted luciferase
# [2] = human PBMCs, compounds 2 hours before LPS (10 ng/ml) for 18 hours, supernatant TNF ELISA
# [3] = LPS-stimulated human PBMCs, TNF ELISA
IC50 (NF-κB; [1]),IC50 (TNF release; [2]),IC50 (NF-κB; LPS-stimulated),IC50 (TNF release; [3]),SMILES
< 0.1 µM,> 10 µM,–,–,Cc1ccc(NS(=O)(=O)c2c(C)c(Cl)cc3c2OCC(=O)N3)cc1Cl [BC19433]
< 0.1 µM,> 10 µM,–,–,Cc1c(Cl)cc2c(c1S(=O)(=O)Nc1ccc(Cl)cc1)OCC(=O)N2 [BC19434]
< 0.1 µM,> 10 µM,–,–,CCS(=O)(=O)c1cc2c(c(S(=O)(=O)Nc3ccc(OC(F)(F)F)cc3)c1)OCC(=O)N2 [BC19435]
< 0.1 µM,> 10 µM,–,–,CCS(=O)(=O)c1cc2c(c(S(=O)(=O)Nc3ccc(C)c(F)c3)c1)OCC(=O)N2 [BC19436]
< 0.1 µM,> 10 µM,–,–,CCS(=O)(=O)c1cc2c(c(S(=O)(=O)Nc3ccccc3)c1)OCC(=O)N2 [BC19437]
< 0.1 µM,> 10 µM,–,–,CCS(=O)(=O)c1cc2c(c(S(=O)(=O)Nc3ccc(OC)cc3)c1)OCC(=O)N2 [BC19438]
< 0.1 µM,> 10 µM,–,–,CCc1cccc(NS(=O)(=O)c2cc(S(=O)(=O)CC)cc3c2OCC(=O)N3)c1 [BC19439]
< 0.1 µM,> 10 µM,–,–,CCS(=O)(=O)c1cc2c(c(S(=O)(=O)Nc3cccc(F)c3)c1)OCC(=O)N2 [BC19440]
< 0.1 µM,> 10 µM,–,–,CCS(=O)(=O)c1cc2c(c(S(=O)(=O)Nc3cccc(Cl)c3)c1)OCC(=O)N2 [BC19441]
0.1 to 1 µM,> 10 µM,–,–,CCS(=O)(=O)c1cc2c(c(S(=O)(=O)Nc3ccc(F)cc3Cl)c1)OCC(=O)N2 [BC19442]
< 0.1 µM,> 10 µM,–,–,CCS(=O)(=O)c1cc2c(c(S(=O)(=O)Nc3ccc(F)cc3)c1)OCC(=O)N2 [BC19443]
–,–,0.1 to 1 µM,> 10 µM,Cn1cnnc1-c1ccc2nc(-c3ccc(F)cc3F)c(-c3ccccc3)nc2c1 [BC19444]
–,–,> 10 µM,> 10 µM,CN1CCN(C(=O)c2ccc3nc(-c4ccc(OC(F)(F)F)cc4)c(-c4ccc(OC(F)(F)F)cc4)nc3c2)CC1 [BC19445]
–,–,> 10 µM,> 10 µM,CN1CCN(C(=O)c2ccc3nc(-c4ccc(C#N)cc4)c(-c4ccc(C#N)cc4)nc3c2)CC1 [BC19446]
–,–,> 10 µM,> 10 µM,CNC(=O)c1ccc2nc(-c3ccc(OC(F)(F)F)cc3)c(-c3ccc(OC(F)(F)F)cc3)nc2c1 [BC19447]
–,–,0.1 to 1 µM,> 10 µM,Oc1ccc2nc(-c3ccc(F)cc3)c(-c3ccc(F)cc3)nc2n1 [BC19448]
–,–,> 10 µM,> 10 µM,O=C(O)c1ccc2nc(-c3ccc(OC(F)(F)F)cc3)c(-c3ccc(OC(F)(F)F)cc3)nc2c1 [BC19449]
–,–,1 to 10 µM,> 10 µM,CN1CCN(C(=O)c2ccc3nc(-c4ccc(Cl)cc4)c(-c4ccc(Cl)cc4)nc3c2)CC1 [BC19450]
–,–,0.1 to 1 µM,> 10 µM,C#CCNC(=O)c1ccc2nc(-c3ccc(Cl)cc3)c(-c3ccc(Cl)cc3)nc2c1 [BC19451]
–,–,0.1 to 1 µM,> 10 µM,O=C(NCCO)c1ccc2nc(-c3ccc(Cl)cc3)c(-c3ccc(Cl)cc3)nc2c1 [BC19452]
–,–,> 10 µM,> 10 µM,O=C(NCCO)c1ccc2nc(-c3ccc(OC(F)(F)F)cc3)c(-c3ccc(OC(F)(F)F)cc3)nc2c1 [BC19453]
> 10 µM,> 10 µM,–,–,O=c1[nH]ccc2cc([S+]([O-])c3ccccc3)ccc12 (stereo not drawn) [BC19454]
> 10 µM,> 10 µM,–,–,COc1ccc(S(=O)(=O)c2cnccc2O)cc1OC [BC19455]
> 10 µM,> 10 µM,–,–,O=S(=O)(c1ccc(Cl)cc1)c1cnccc1O [BC19456]
> 10 µM,> 10 µM,–,–,COc1ccc(S(=O)(=O)c2cnccc2O)cc1 [BC19457]
> 10 µM,> 10 µM,–,–,Cc1ccc([S+]([O-])c2cnccc2O)c(C)c1 (stereo not drawn) [BC19458]

IC50 (NF-κB; [1]),IC50 (TNF release; [2]),IC50 (NF-κB; LPS-stimulated),IC50 (TNF release; [3]),SMILES
> 10 µM,> 10 µM,–,–,O=S(=O)(c1ccc(F)cc1)c1cnccc1O [BC19459]
> 10 µM,> 10 µM,–,–,O=S(=O)(c1ccccc1)c1cnccc1O [BC19461]
–,–,1 to 10 µM,> 10 µM,COc1cccc(-c2nc(S(=O)(=O)c3ccc(Cl)cc3)c([S+]([O-])CC3CC3)[nH]2)c1 (stereo not drawn) [BC19462]
–,–,< 0.1 µM,0.1 to 1 µM,CC(C)C[S+]([O-])c1oc(-c2ccc(Cl)cc2)nc1S(=O)(=O)c1ccc(Cl)cc1 (stereo not drawn) [BC19463]
–,–,0.1 to 1 µM,< 0.1 µM,O=S(=O)(c1ccc(Cl)cc1)c1nc(-c2ccc(Cl)cc2)oc1[S+]([O-])CC1CC1 (stereo not drawn) [BC19464]
–,–,1 to 10 µM,> 10 µM,CCC[S+]([O-])c1[nH]c(-c2ccccc2)nc1S(=O)(=O)c1ccc(Cl)cc1 (stereo not drawn) [BC19465]
–,–,1 to 10 µM,> 10 µM,O=S(=O)(c1ccc(Cl)cc1)c1nc(-c2ccccc2)[nH]c1[S+]([O-])CC1CC1 (stereo not drawn) [BC19466]
–,–,1 to 10 µM,1 to 10 µM,O=S(=O)(CC1CC1)c1[nH]c(-c2ccccc2)nc1S(=O)(=O)c1ccc(Cl)cc1 [BC19467]
–,–,1 to 10 µM,> 10 µM,COCCS(=O)(=O)c1[nH]c(-c2ccccc2)nc1S(=O)(=O)c1ccc(Cl)cc1 [BC19468]
–,–,1 to 10 µM,> 10 µM,O=S(=O)(c1ccc(F)cc1)c1nc(-c2ccccc2)[nH]c1[S+]([O-])CC1CC1 (stereo not drawn) [BC19469]
–,–,> 10 µM,> 10 µM,O=S(=O)(CC1CC1)c1[nH]c(-c2ccccc2)nc1S(=O)(=O)c1ccc(F)cc1 [BC19470]
–,–,1 to 10 µM,1 to 10 µM,CS(=O)(=O)c1sc(-c2ccccc2)nc1S(=O)(=O)c1ccc(Cl)cc1 [BC19471]
–,–,> 10 µM,> 10 µM,CCC[S+]([O-])c1sc(-c2ccccc2)nc1S(=O)(=O)c1ccc(Cl)cc1 (stereo not drawn) [BC19472]
–,–,> 10 µM,> 10 µM,CC(C)CS(=O)(=O)c1sc(-c2ccccc2)nc1S(=O)(=O)c1ccc(Cl)cc1 [BC19473]
–,–,1 to 10 µM,> 10 µM,CN(C)CC[S+]([O-])c1sc(-c2ccccc2)nc1S(=O)(=O)c1ccc(Cl)cc1 (stereo not drawn) [BC19474]
–,–,1 to 10 µM,1 to 10 µM,CCCS(=O)(=O)c1sc(-c2cccc(F)c2)nc1S(=O)(=O)c1ccc(Cl)cc1 [BC19475]
–,–,> 10 µM,> 10 µM,CC(C)S(=O)(=O)c1sc(-c2cccc(F)c2)nc1S(=O)(=O)c1ccc(Cl)cc1 [BC19476]
–,–,> 10 µM,> 10 µM,CC(C)CS(=O)(=O)c1sc(-c2cccc(F)c2)nc1S(=O)(=O)c1ccc(Cl)cc1 [BC19477]
–,–,> 10 µM,1 to 10 µM,O=S(=O)(c1ccc(Cl)cc1)c1nc(-c2cccc(F)c2)sc1[S+]([O-])CC1CC1 (stereo not drawn) [BC19478]
–,–,> 10 µM,> 10 µM,COCC[S+]([O-])c1sc(-c2ccc(Cl)cc2)nc1S(=O)(=O)c1ccc(Cl)cc1 (stereo not drawn) [BC19479]
–,–,> 10 µM,> 10 µM,CC(C)[S+]([O-])c1sc(-c2ccc(Cl)cc2)nc1S(=O)(=O)c1ccc(Cl)cc1 (stereo not drawn) [BC19480]
< 0.1 µM,> 10 µM,–,–,CS(=O)(=O)c1cc2c(c(S(=O)(=O)Nc3ccc(F)c(F)c3)c1)OCC(=O)N2 [BC19481]
0.1 to 1 µM,> 10 µM,–,–,CS(=O)(=O)c1cc2c(c(S(=O)(=O)Nc3ccccc3)c1)OCC(=O)N2 [BC19482]
< 0.1 µM,> 10 µM,–,–,CS(=O)(=O)c1cc2c(c(S(=O)(=O)Nc3ccc(Cl)cc3)c1)OCC(=O)N2 [BC19483]
< 0.1 µM,> 10 µM,–,–,CCc1ccc(NS(=O)(=O)c2cc(S(C)(=O)=O)cc3c2OCC(=O)N3)cc1 [BC19484]
